Measurements as given in patent US4753953A, “Pyridonecarboxylic acid derivatives and antibacterial pharmaceutical compositions thereof” (priority 1985, dated 1988).
≈ marks a conversion by molar mass, not a printed value. Where two headings read alike, the source gives them in different places.

How the values were obtained:
Test in all cases: MIC, in vitro antibacterial activity (standard strains)
[1] = test system: S. aureus IID 670 (Terajima); format: cell-based, Staphylococcus aureus; conditions: Staphylococcus aureus, IID670; 10^6 cells/ml; Gram +; read-out: MIC
S. pyogenes IID 692 = format: cell-based, Streptococcus pyogenes; conditions: Streptococcus pyogenes, IID692; 10^6 cells/ml; Gram +; read-out: MIC
[2] = test system: Escherichia coli NIHJ JC-2; format: cell-based; conditions: Escherichia coli, NIHJJC2
P. mirabilis IID 994 = format: cell-based; conditions: Proteus mirabilis, IID994; 10^6 cells/ml; Gram -; read-out: MIC
[3] = test system: Morganella morganii IID 602; format: cell-based; conditions: Morganella morganii, IID602; 10^6 cells/ml; Gram -; read-out: MIC
[4] = test system: Klebsiella pneumoniae KY(GN)6445; format: cell-based; conditions: Klebsiella pneumoniae
[5] = test system: Enterobacter cloacae IID 977; format: cell-based; conditions: Enterobacter cloacae, IID977; 10^6 cells/ml; Gram -; read-out: MIC
[6] = test system: Serratia marcescens IID 618; format: cell-based; conditions: Serratia marcescens, IID618; 10^6 cells/ml; Gram -; read-out: MIC
P. aeruginosa IFO 12689 = format: cell-based, Pseudomonas aeruginosa; conditions: Pseudomonas aeruginosa, IFO12689
P. aeruginosa IID 1210 = format: cell-based, Pseudomonas aeruginosa; conditions: Pseudomonas aeruginosa, IID1210; 10^6 cells/ml; Gram -; read-out: MIC
P. maltophilia GIFU 2491 = format: cell-based; conditions: Stenotrophomonas maltophilia, GIFU2491
[7] = test system: B. thetaiotaomicron (0661); format: cell-based; conditions: Bacteroides thetaiotaomicron; 10^6 cells/ml; Gram -; read-out: MIC
B. vulgatus KYA 29327 = format: cell-based; conditions: Phocaeicola vulgatus, KYA29327; 10^6 cells/ml; Gram -; read-out: MIC
[8] = test system: Eubacterium lentum GAI 5242; format: cell-based; conditions: Eggerthella lenta, GAI5242; 10^6 cells/ml; Gram +; read-out: MIC
[9] = test system: Peptococcus magnus KY 017; format: cell-based; conditions: Finegoldia magna, KY017; 10^6 cells/ml; Gram +; read-out: MIC
Pst. micros UPI 5464-1 = format: cell-based; conditions: Parvimonas micra, UPI54641; 10^6 cells/ml; Gram +; read-out: MIC
[10] = 10^6 cells/ml, Gram -, read-out: MIC

Row | Compound | MIC [1] [µg/mL] | MIC (S. pyogenes IID 692) [µg/mL] | MIC [2, 10] [µg/mL] | MIC (P. mirabilis IID 994) [µg/mL] | MIC [3] [µg/mL] | MIC [4, 10] [µg/mL] | MIC [5] [µg/mL] | MIC [6] [µg/mL] | MIC (P. aeruginosa IFO 12689; [10]) [µg/mL] | MIC (P. aeruginosa IID 1210) [µg/mL] | MIC (P. maltophilia GIFU 2491; [10]) [µg/mL] | MIC [7] [µg/mL] | MIC (B. vulgatus KYA 29327) [µg/mL] | MIC [8] [µg/mL] | MIC [9] [µg/mL] | MIC (Pst. micros UPI 5464-1) [µg/mL] | MIC [4] [µg/mL] | MIC (P. maltophilia GIFU 2491) [µg/mL] | MIC [2] [µg/mL] | MIC (P. aeruginosa IFO 12689) [µg/mL]
1 | C[C@H]1CN(c2cc3c(cc2F)c(=O)c(C(=O)O)cn3C2CC2)C[C@H]1N (relative stereo) [Example 33, 7-(cis-3-Amino-4-methyl-1-pyrrolidinyl)-1-cyclopropyl-6-fluoro-1,4-dihydro-4-oxo-3-quinolinecarboxylic acid] | 0.1 (≈ 0.29 µM) | 0.39 (≈ 1.13 µM) | 0.05 (≈ 0.145 µM) | 0.05 (≈ 0.145 µM) | 0.05 (≈ 0.145 µM) | 0.05 (≈ 0.145 µM) | 0.05 (≈ 0.145 µM) | 0.05 (≈ 0.145 µM) | 0.39 (≈ 1.13 µM) | 1.56 (≈ 4.52 µM) | 0.39 (≈ 1.13 µM) | 6.25 (≈ 18.1 µM) | 6.25 (≈ 18.1 µM) | 0.78 (≈ 2.26 µM) | 0.39 (≈ 1.13 µM) | 0.39 (≈ 1.13 µM) |  |  |  | 
2 | C[C@@H]1CN(c2c(F)cc3c(=O)c(C(=O)O)cn(C4CC4)c3c2Br)C[C@H]1N (relative stereo) [Example 32, 7-(trans-3-Amino-4-methyl-1-pyrrolidinyl)-8-bromo-1-cyclopropyl-6-fluoro-1,4-dihydro-4-oxo-3-quinolinecarboxylic acid] | 0.05 (≈ 0.118 µM) | 0.2 (≈ 0.471 µM) | 0.0063 (≈ 0.0148 µM) | 0.05 (≈ 0.118 µM) | 0.05 (≈ 0.118 µM) | 0.025 (≈ 0.0589 µM) | 0.05 (≈ 0.118 µM) | 0.05 (≈ 0.118 µM) | 0.39 (≈ 0.919 µM) | 0.78 (≈ 1.84 µM) | 0.05 (≈ 0.118 µM) | 0.2 (≈ 0.471 µM) | 0.1 (≈ 0.236 µM) | 0.1 (≈ 0.236 µM) | 0.05 (≈ 0.118 µM) | 0.1 (≈ 0.236 µM) |  |  |  | 
3 | CC1CN(c2c(F)cc3c(=O)c(C(=O)O)cn(C4CC4)c3c2Cl)CC1N (centres unmarked) [Example 7, 7-(3-Amino-4-methyl-1-pyrrolidinyl)-8-chloro-1-cyclopropyl-6-fluoro-1,4-dihydro-4-oxo-3-quinolinecarboxylic acid] | 0.05 (≈ 0.132 µM) | 0.1 (≈ 0.263 µM) | 0.0063 (≈ 0.0166 µM) | 0.025 (≈ 0.0658 µM) | 0.05 (≈ 0.132 µM) | 0.0125 (≈ 0.0329 µM) | 0.05 (≈ 0.132 µM) | 0.05 (≈ 0.132 µM) | 0.39 (≈ 1.03 µM) | 0.39 (≈ 1.03 µM) | 0.05 (≈ 0.132 µM) | 0.2 (≈ 0.527 µM) | 0.1 (≈ 0.263 µM) | 0.1 (≈ 0.263 µM) | 0.05 (≈ 0.132 µM) | 0.1 (≈ 0.263 µM) |  |  |  | 
4 | C[C@H]1CN(c2c(F)cc3c(=O)c(C(=O)O)cn4c3c2OC[C@@H]4C)C[C@H]1N.Cl (mixture of isomers) [Example 31, (3S)-10-(cis-3-Amino-4-methyl-1-pyrrolidinyl)-9-fluoro-2,3-dihydro-3-methyl-7-oxo-7H-pyrido[1,2,3-de][1,4]benzoxazine-6-carboxylic acid hydrochloride] | 0.2 | 0.2 | 0.025 | 0.1 | 0.2 | 0.05 | 0.1 | 0.1 | 0.78 | 3.13 | 0.78 | 3.13 | 3.13 | 0.39 | 0.2 | 0.2 |  |  |  | 
5 | C[C@@H]1CN(c2c(F)cc3c(=O)c(C(=O)O)cn(C4CC4)c3c2F)C[C@H]1N (relative stereo) [Example 18, 7-(trans-3-Amino-4-methyl-1-pyrrolidinyl)-1-cyclopropyl-6,8-difluoro-1,4-dihydro-4-oxo-3-quinolinecarboxylic acid] | 0.2 (≈ 0.55 µM) | 0.1 (≈ 0.275 µM) | 0.0063 (≈ 0.0173 µM) | 0.025 (≈ 0.0688 µM) | 0.05 (≈ 0.138 µM) |  | 0.05 (≈ 0.138 µM) | 0.05 (≈ 0.138 µM) | 0.39 (≈ 1.07 µM) | 0.78 (≈ 2.15 µM) |  | 0.39 (≈ 1.07 µM) | 0.39 (≈ 1.07 µM) | 0.1 (≈ 0.275 µM) | 0.05 (≈ 0.138 µM) | 0.1 (≈ 0.275 µM) | 0.0125 (≈ 0.0344 µM) | 0.05 (≈ 0.138 µM) |  | 
6 | CCNCC1CN(c2c(F)cc3c(=O)c(C(=O)O)cn(C4CC4)c3c2F)CC1C (centres unmarked) [Example 15, 1-Cyclopropyl-7-(3-ethylaminomethyl-4-methyl-1-pyrrolidinyl)-6,8-difluoro-1,4-dihydro-4-oxo-3-quinolinecarboxylic acid] | 0.05 (≈ 0.123 µM) | 0.1 (≈ 0.247 µM) | 0.05 (≈ 0.123 µM) | 0.1 (≈ 0.247 µM) | 0.2 (≈ 0.493 µM) | 0.05 (≈ 0.123 µM) | 0.2 (≈ 0.493 µM) | 0.2 (≈ 0.493 µM) | 3.13 (≈ 7.72 µM) | 3.13 (≈ 7.72 µM) | 0.39 (≈ 0.962 µM) | 1.56 (≈ 3.85 µM) | 0.78 (≈ 1.92 µM) | 0.39 (≈ 0.962 µM) | ≤ 0.05 | 0.78 (≈ 1.92 µM) |  |  |  | 
7 | C[C@H]1CN(c2c(F)cc3c(=O)c(C(=O)O)cn(CCF)c3c2F)C[C@H]1N (relative stereo) [Example 25, 7-(cis-b 3-Amino-4-methyl-1-pyrrolidinyl)-6,8-difluoro-1-(2-fluoroethyl)-1,4-dihydro-4-oxo-3-quinolinecarboxylic acid] | 0.39 (≈ 1.06 µM) | 0.78 (≈ 2.11 µM) | 0.05 (≈ 0.135 µM) | 0.1 (≈ 0.271 µM) | 0.1 (≈ 0.271 µM) | 0.1 (≈ 0.271 µM) | 0.1 (≈ 0.271 µM) | 0.1 (≈ 0.271 µM) | 1.56 (≈ 4.22 µM) | 6.25 (≈ 16.9 µM) | 1.56 (≈ 4.22 µM) | 6.25 (≈ 16.9 µM) | 6.25 (≈ 16.9 µM) | 1.56 (≈ 4.22 µM) | 1.56 (≈ 4.22 µM) | 0.78 (≈ 2.11 µM) |  |  |  | 
8 | C[C@H]1CN(c2c(F)cc3c(=O)c(C(=O)O)cn(C4CC4)c3c2F)C[C@H]1N.Cl (relative stereo) [Example 20, 7-(cis-3-Amino-4-methyl-1-pyrrolidinyl)-1-cyclopropyl-6,8-difluoro-1,4-dihydro-4-oxo-3-quinolinecarboxylic acid hydrochloride] | 0.05 | 0.39 |  | 0.05 | 0.05 | 0.025 | 0.05 | 0.05 | 0.39 | 0.78 | 0.39 | 0.78 | 0.39 | 0.2 | 0.2 | 0.2 |  |  | 0.0125 | 
9 | C[C@H]1CN(c2c(F)cc3c(=O)c(C(=O)O)cn(CCF)c3c2Cl)C[C@H]1N (relative stereo) [Example 27, 7-(cis-3-Amino-4-methyl-1-pyrrolidinyl)-8-chloro-6-fluoro-1-(2-fluoroethyl)-1,4-dihydro-4-oxo-3-quinolinecarboxylic acid] | 0.39 (≈ 1.01 µM) | 0.78 (≈ 2.02 µM) | 0.05 (≈ 0.13 µM) | 0.1 (≈ 0.259 µM) | 0.1 (≈ 0.259 µM) | 0.1 (≈ 0.259 µM) | 0.1 (≈ 0.259 µM) | 0.1 (≈ 0.259 µM) |  | 6.25 (≈ 16.2 µM) | 1.56 (≈ 4.04 µM) | 3.13 (≈ 8.11 µM) | 3.13 (≈ 8.11 µM) | 0.78 (≈ 2.02 µM) | 0.78 (≈ 2.02 µM) | 0.39 (≈ 1.01 µM) |  |  |  | 3.13 (≈ 8.11 µM)
10 | CC1CN(c2c(F)cc3c(=O)c(C(=O)O)cn(C4CC4)c3c2Cl)CC1CN (centres unmarked) [Example 1, 7-(3-Aminomethyl-4-methyl-1-pyrrolidinyl)-8-chloro-1-cyclopropyl-6-fluoro-1,4-dihydro-4-oxo-3-quinolinecarboxylic acid] | 0.025 (≈ 0.0635 µM) | 0.025 (≈ 0.0635 µM) | 0.025 (≈ 0.0635 µM) | 0.05 (≈ 0.127 µM) | 0.1 (≈ 0.254 µM) | 0.05 (≈ 0.127 µM) | 0.05 (≈ 0.127 µM) | 0.1 (≈ 0.254 µM) | 0.78 (≈ 1.98 µM) | 0.78 (≈ 1.98 µM) | 0.1 (≈ 0.254 µM) | 0.1 (≈ 0.254 µM) | 0.1 (≈ 0.254 µM) | 0.2 (≈ 0.508 µM) | ≤ 0.05 | 0.39 (≈ 0.99 µM) |  |  |  | 
11 | CCNCC1CN(c2c(F)cc3c(=O)c(C(=O)O)cn(C4CC4)c3c2Cl)CC1C (centres unmarked) [Example 14, 8-Chloro-1-cyclopropyl-7-(3-ethylaminomethyl-4-methyl-1-pyrrolidinyl)-6-fluoro-1,4-dihydro-4-oxo-3-quinolinecarboxylic acid] | 0.0125 (≈ 0.0296 µM) | 0.05 (≈ 0.119 µM) | 0.025 (≈ 0.0593 µM) | 0.1 (≈ 0.237 µM) | 0.2 (≈ 0.474 µM) | 0.05 (≈ 0.119 µM) | 0.2 (≈ 0.474 µM) | 0.2 (≈ 0.474 µM) | 3.13 (≈ 7.42 µM) | 3.13 (≈ 7.42 µM) | 0.39 (≈ 0.924 µM) | 0.2 (≈ 0.474 µM) | ≤ 0.05 | 0.2 (≈ 0.474 µM) | ≤ 0.05 | 0.39 (≈ 0.924 µM) |  |  |  | 
